# In patent publication US20200078471A1, “RENAL CLEARABLE DRUG DELIVERING NANOPARTICLES AND METHODS OF USE THEREFOR” (priority 2018, published 2020):
# “Also recorded” adds a separate entry of the source.
# What was measured:
# [1] = tested on: 4T1 lung metastasis; assay: Metastatic lung cancer model, nodule count and size; format: in vivo, female Balb/c mice; details: 5 mg/kg DOX equivalent ×5, day 23
# [2] = Pharmacokinetic study, DOX in blood
# Procedure: Clearance, physiological stability, and elimination. […] Since DOX is highly fluorescent, the fluorescence signals were collected at 610 nm with excitation at 470 nm. […] Extraction was performed at −20° C. for overnight and supernatant was obtained after centrifugation at 15,000 g for 10 min. The DOX concentrations were quantified based on fluorescence analysis. […] For pharmacokinetic study, the DOX concentrations in blood were analysed using HPLC with the same approach described above.
# [3] = tested on: MCF-7 human breast cancer xenograft; assay: Tumor targeting efficiency; format: in vivo, nude mice; details: 12 hr p.i., DOX 5 mg/kg i.v.
# Procedure: Tumor targeting, penetration and antitumor efficacy studies. […] The tumors were collected and homogenized and DOX concentrations were measured using the same approaches described in the biodistribution studies. The ex vivo tumor fluorescence imaging was acquired using a Carestream Molecular imaging system In-Vivo FX PRO with an excitation filter of 470±10 nm and an emission filter of 600±20 nm. […] The mice were sacrificed 12 hr and 3 days p.i. respectively. Tumor tissues were fixed, embedded in paraffin and sliced before haematoxylin and eosin (H&E), and silver staining. To enable visualization of AuNPs in the tumor issues, dewaxed tumor slides were incubated with silver nitrate (0.1 M) and hydroquinone (2 mM) for 15 min at room temperature, followed by washing with pure water and haemotoxylin and eosin staining (Du et al., 2017). […] The length (L) and width (W) of the tumors were measured with a digital calliper and the volume (V) was calculated by the equation V=½ LW^2. The body weights were also monitored during the treatment. […] For survival study, the tumor bearing mice were treated same with therapeutic study, and tumor sizes were monitored. […] To establish the metastatic lung cancer model, female Balb/c mice were implanted with 4T1 mammary cancer cells subcutaneously and the cancer cells would be readily developed as lung metastatic nodules after a week.
# [4] = Renal clearance (urine DOX by HPLC, gold by ICP-MS); format: in vivo, female CD-1 mice; details: 24 hr p.i., intravenous
# Excerpt: (§1) Clearance, physiological stability, and elimination. […] The DOX concentrations were quantified based on fluorescence analysis.
# [5] = Maximal tolerated dose, single dose; details: single i.v. dose, 10 days
# Procedure: (§2) Toxicity studies. […] For blood chemistry study, the blood was collected through cardiac puncture 15 days p.i. and kept on ice for 30 min for coagulation. […] The organs and tissues were also collected, fixed in formalin (10%) and embedded in paraffin before H&E staining and pathological evaluation. […] The mice were sacrificed on 10 days p.i. and the blood were extracted via cardiac puncture.
# [6] = DOX and AuNP biodistribution in organs and tissues; format: in vivo, CD-1 mice
# Excerpt: as §1
# [7] = Acute toxicity, successive treatment (body weight, blood chemistry, H&E)
# Procedure: as §2
# [8] = equivalent DOX 5 mg/kg ×5, within 10 days
smiles,measurement,setting,value
"COc1cccc2c1C(=O)c1c(O)c3c(c(O)c1C2=O)C[C@@](O)(C(=O)CO)C[C@@H]3O[C@H]1C[C@H](N)[C@H](O)[C@H](C)O1 [free DOX, doxorubicin]",count of metastatic tumor nodules in the lungs (per mouse),[1],62.6±30.5
same,size of metastatic lung tumor nodules,[1],1.64±0.77 mm
same,24-h area under curve (AUC),[2]; DOX in blood,2.2 % ID·h/g
same,distribution half-life t1/2a,"[2]; plasma, CD-1 mice",4.8 min
same,tumor targeting of DOX,[3],0.79±0.22 % ID/g
same,DOX-based renal clearance (renally cleared DOX),[4],6.1±1.1 % ID
same,"maximal tolerance dose (MTD, in terms of DOX)",[5],10 mg/kg body weight
same,DOX distribution in the kidneys,[6]; 1 hr p.i.,11.4 % ID/g
same,DOX accumulation in the liver,[6]; 24 h p.i.,even lower accumulation in the liver
same,decrease of muscle DOX from 1 to 24 h,"[6]; mouse, in vivo",19.7%
same,hepatocyte anisocaryosis and anisocytosis (H&E liver),[7]; 15 days p.i.,increase in hepatocyte anisocaryosis and anisocytosis; also recorded: evident
same,hepatocyte nuclei size distribution width,[7]; 15 days p.i.,significant higher distribution width
same,"pathological signs in heart, kidney, spleen and muscle",[7]; 15 days p.i.,no observable pathological signs
same,"blood chemistry, liver function (ALT, AST, ALKP, albumin)","[7]; 15 days p.i., 5 mg/kg ×5",increased alanine aminotransferase (ALT) and aspartate aminotransferase (AST) levels and decreased alkaline phosphatase (ALKP) and albumin levels in serum
same,"blood chemistry, renal function (BUN, CREA)","[7]; 15 days p.i., 5 mg/kg ×5",increased blood urea nitrogen (BUN) and creatinine (CREA) levels in serum
same,body weight loss,[7]; [8],~10%
same,mortality,[7]; [8],25%
